Laboratory results: patent US20090252716A1, “METHODS FOR IDENTIFYING NUCLEAR RECEPTOR/LIGAND COMBINATIONS FOR TARGETING BRAIN TUMOR STEM CELLS AND FOR THEIR USE” (Clarian Health Partners, Inc. d/b/a Methodist Research …, priority 2008, published 2009)

Legend:
[1] = tested on: U87MG and T98G human glioma cells, their respective BTSC's, and CD133+ cells; assay: Proliferation of glioma cells, BTSC's and CD133+ cells, result in words; format: cell-based
Experimental: (§1) The use of nuclear receptor agonists in the treatment of brain tumors was examined by testing the effect of the specific ligands on the proliferation of brain tumor and BTSC'S. Prior to studying the anti-tumor effect of melatonin, it was necessary to determine the viability of glioma and BTSC's in the cultures used in this study. […] Their proliferation was measured by WST-1 assay. The ligands for all six nuclear receptors induced anti-proliferative activity in brain tumor stem cells as well as human glioma cells. It was also noted that the selected nuclear receptor agonists induced anti-tumor activity in brain tumor stem cells and that the different agonists for the highly altered nuclear hormone receptors provided different levels of inhibition for brain tumor cells and BTSC's in cultures. As a result, the nuclear hormone receptors having altered expression and activation profile in BTSC can be selected to specifically target BTSC's. Additional information regarding the individual studies is provided below:
(§2) Proliferation assay. Proliferation of gliosphere cells was measured using WST-1 assay (Roche Applied Sciences, Indianapolis, Ind.) and ^3H thymidine uptake assay. Briefly, T98G and U87MG glioma and gliosphere cells were cultured in 96-well tissue culture plates (1×10^4/200 μl/well) in neurobasal medium with B27 serum supplement in the presence of 10 ng/ml EGF+bFGF and increasing doses of nuclear receptors in 5% CO2-incubator at 37° C. After 48 hrs, WST-1 reagent ([…]) was added and the absorbance was measured at 460 nm using 2100 microplate reader (Alpha Diagnostics Inc., San Antonio, Tex.) as a measure of viable cell count. This assay is based on the cleavage of the tetrazolium salt, WST-1, by mitochondrial dehydrogenases in viable cells and a decrease in OD corresponds to decrease in viable cell count. In some experiments, ^3H thymidine (0.5 μCi/ml) was added at 48 hours, the cells harvested after 72 hours using a Tomtech harvester 96 (Hamden, Conn., USA) and the amount of ^3H thymidine uptake counted on a Perkin Elmer Microbeta liquid scintillation counter to provide a measure of proliferation.

T98G-CD133+ cells = assay: WST-1 proliferation assay, T98G-CD133+ cells; format: cell-based; conditions: Homo sapiens, anti-tumor activity, 48 hours
Experimental: as §1
(§3) Isolation and expansion of CD133+ BTSC: The CD133+ BTSC were isolated from human glioblastoma cells by magnetic bead technique using CD133 antibody (Miltenyi Biotec, Auburn, Calif., USA). The U87MG and T98G glioma cells and tumor spheres expanded as described above were dissociated by treatment with Trypsin-EDTA solution at 37° C. for 10 minutes. The cells (1×10^7 cells) were washed in cold sterile PBS, re-suspended in 100 μl blocking buffer (PBS, pH 7.2, 0.5% BSA, 2 mM EDTA) with 50 μl of FcR blocking reagents (Miltenyi Biotech, Auburn, Calif., USA) and incubated at 4° C. for 30 minutes. The cells were washed and re-suspended in 200 μl of anti-PE microbeads in the buffer and incubated at 4° C. for 30 minutes. The CD133+ cells were separated by passing through an LS column in the midi Macs separation unit. The column effluent was collected to provide a CD133 negative population. The columns were washed with buffer, removed from the Mac separation unit and placed in a sterile 15 ml tube. […] The cells obtained were counted and expanded in culture or used directly for the experiments described herein.
(§4) Proliferation assay. Proliferation of gliosphere cells was measured using WST-1 assay (Roche Applied Sciences, Indianapolis, Ind.) and ^3H thymidine uptake assay. […] After 48 hrs, WST-1 reagent ([…]) was added and the absorbance was measured at 460 nm using 2100 microplate reader (Alpha Diagnostics Inc., San Antonio, Tex.) as a measure of viable cell count. […] In some experiments, ^3H thymidine (0.5 μCi/ml) was added at 48 hours, the cells harvested after 72 hours using a Tomtech harvester 96 (Hamden, Conn., USA) and the amount of ^3H thymidine uptake counted on a Perkin Elmer Microbeta liquid scintillation counter to provide a measure of proliferation.

[2] = tested on: U87 BTSC's (brain tumor stem cells); assay: WST-1 proliferation assay, U87 BTSC's; format: cell-based; conditions: Homo sapiens, anti-tumor activity, 48 hours
Experimental: (§5) The use of nuclear receptor agonists in the treatment of brain tumors was examined by testing the effect of the specific ligands on the proliferation of brain tumor and BTSC'S. Prior to studying the anti-tumor effect of melatonin, it was necessary to determine the viability of glioma and BTSC's in the cultures used in this study. […] Their proliferation was measured by WST-1 assay. […] Additional information regarding the individual studies is provided below:
(§6) Gliosphere culture. To generate gliospheres, the following standardized method was utilized. Briefly, U87MG and T98G glioblastoma cells were dissociated from DMEM cultures using trypsin-EDTA solution and reseeded in neurobasal medium (NBM) supplemented with B27 in the presence of 10 ng/ml bFGF and EGF. The cells (5×10^4/ml/well) were cultured in 12 well plates in 5% CO2-incubator at 37° C. with a medium change of every 2-3 days. The cells were photographed (200× and 400×) under phase contrast microscope (AX70, Olympus Optical, Japan) after 10-12 days. The primary human glioblastoma cells were also dissociated from DMEM using trypsin-EDTA. The cells were cultured (1×10^5 cells/ml/well) in neurobasal medium (NBM) supplemented with B27 in the presence of 10 ng/ml of bFGF and EGF in 12 well plates in 5% CO2-incubator at 37° C. The resulting tumorspheres were photographed under light microscope.
as §4

T98G human glioma cells = assay: WST-1 proliferation assay, T98G glioma cells; format: cell-based; conditions: anti-tumor activity, 48 hours, read-out: EC50, T98-glioma
Experimental: as §1
(§7) Cell culture. The U87MG and T98G brain tumor cell-lines, established from human glioblastoma (Ponten, et al., 1968) were obtained from American Type Culture Collection (ATCC, Manassas, Va.). The cells were cultured in Dulbecco's Modified Eagle Medium (DMEM) (Invitrogen, California, USA) supplemented with 10% FBS, 1 mM Sodium pyruvate, 100 U/ml penicillin G, 100 μg/ml Streptomycin, 2 mM glutamine, 1 mM MEM nonessential amino acids and 50 μM 2-mercaptoethanol in 5% CO2 incubator at 37° C. The cells were dissociated using 0.25% trypsin, 0.53 mM EDTA solution and sub-cultured once in 3-5 days. Primary brain tumor tissue/cells were also obtained from the tissue repository at Methodist Research Institute and cultured (1×10^5 cells/ml/well) in DMEM medium supplemented with 10% FBS and sub-cultured once in 10-12 days.
as §2, with “This assay is based on the cleavage of the tetrazolium salt, WST-1, by mitochondrial dehydrogenases in viable cells and a decrease in OD corresponds to decrease in viable cell count.” left out

U87MG human glioma cells = assay: WST-1 proliferation assay, U87 glioma cells; format: cell-based; conditions: U-87 MG, anti-tumor activity, 48 hours
Experimental: as §1, §7
as §2, with “This assay is based on the cleavage of the tetrazolium salt, WST-1, by mitochondrial dehydrogenases in viable cells and a decrease in OD corresponds to decrease in viable cell count.” left out

T98G tumorspheres = assay: Tumorsphere formation from T98G glioblastoma cells in NBM; format: cell-based, human; conditions: NBM with B27, EGF+bFGF
Experimental: Initially culture conditions were established for expanding BTSC's as tumorspheres from brain tumor cells in culture. […] The resulting tumorspheres increased substantially in size within 7 to 10 days. FIG. 1 illustrates typical glioblastoma cells cultured in DMEM supplemented with 10% FBS and the corresponding tumorspheres cultured in neurobasal medium (NBM) with B27 supplement and 10 ng/ml EGF+bFGF. The tumorspheres illustrated in FIG. 1 were photographed after 10 days (200×).
as §6

U87-CD133+ cells = assay: WST-1 proliferation assay, U87-CD133+ cells; format: cell-based; conditions: Homo sapiens, anti-tumor activity, 48 hours
Experimental: as §1, §3, §4

[3] = tested on: T98G BTSC's (brain tumor stem cells); assay: WST-1 proliferation assay, T98G BTSC's; format: cell-based; conditions: Homo sapiens, anti-tumor activity, 48 hours, read-out: EC50, T98-BTSC
Experimental: as §5, §6, §4

U87MG tumorspheres = assay: Tumorsphere formation from U87MG cells in NBM; format: cell-based, human; conditions: NBM with B27, EGF+bFGF
Experimental: FIG. 9B, first panel, illustrates cells of U87MG cultured in DMEM. Cells cultured in NBM with B27 supplement in the presence of EGF+bFGF developed into tumorspheres within 3-5 days (see FIG. 9A, middle panel).
as §6

SMILES	EC50 [2] [µM]	EC50 (T98G human glioma cells) [µM]	EC50 (U87MG human glioma cells) [µM]	EC50 (U87-CD133+ cells) [µM]	EC50 [3] [µM]	proliferation of glioma cells and BTSC's [1]	EC50 (T98G-CD133+ cells) [µM]	number and size of T98G tumorspheres (T98G tumorspheres)	tumorsphere size and number, U87MG (U87MG tumorspheres)
O=C(O)Cc1cccc(OCCCN(Cc2cccc(C(F)(F)F)c2Cl)CC(c2ccccc2)c2ccccc2)c1 [GW3965]	1.55 ± 0.43	4.85 ± 1	4.22 ± 0.23	2.96 ± 0.21	12.2 ± 3.04	inhibits the proliferation	3.28 ± 0.64	significant and dose-dependent decrease	
Clc1ccc(-c2nc3sccn3c2/C=N/OCc2ccc(Cl)c(Cl)c2)cc1 [CITCO]						inhibits the proliferation		significant and dose-dependent decrease	
CCCCCC=CC=C1C(=O)C=C[C@@H]1CC=CCCCC(=O)O [15d-PGJ2, 15-deoxy Δ^12,14-prostaglandin J2]						inhibited the proliferation			significantly decreased
COc1ccc2[nH]cc(CCNC(C)=O)c2c1 [Melatonin]	7.91 ± 1.34	31 ± 12	18.66 ± 0.18	2.6 ± 0.25	44.7 ± 6.18	inhibits the proliferation	2.45 ± 0.43	significant and dose-dependent decrease	

Further lines, with some results ahead:

EC50 [2] [µM]	EC50 (T98G human glioma cells) [µM]	EC50 (U87MG human glioma cells) [µM]	EC50 (U87-CD133+ cells) [µM]	EC50 [3] [µM]	SMILES	proliferation of glioma cells and BTSC's [1]	EC50 (T98G-CD133+ cells) [µM]	number and size of T98G tumorspheres (T98G tumorspheres)	tumorsphere size and number, U87MG (U87MG tumorspheres)
	12.8 ± 1.97	25.4 ± 4	1.2 ± 0.2		CO[C@H]1/C=C/O[C@@]2(C)Oc3c(C)c(O)c4c(O)c(c(/C=N/N5CCN(C)CC5)c(O)c4c3C2=O)NC(=O)/C(C)=C\C=C\[C@H](C)[C@H](O)[C@@H](C)[C@@H](O)[C@@H](C)[C@H](OC(C)=O)[C@@H]1C [Rifampicin]		1.99 ± 0.47		
72.5 ± 1.57	85 ± 5.59	20.3 ± 0.57	17.6 ± 0.29	85.5 ± 22.4	CCCC(=O)SCCNC(=O)CCNC(=O)[C@H](O)C(C)(C)COP(=O)(O)OP(=O)(O)OC[C@H]1O[C@@H](n2cnc3c(N)ncnc32)[C@H](O)[C@@H]1OP(=O)(O)O [Butyryl CoA]	dose-dependent decrease in the proliferation	54.7 ± 5.76	significant and dose-dependent decrease	
